According to patent publication US11020398B2, “Amino-pyrrolopyrimidinone compounds and methods of use thereof” (ArQule, Inc., priority 2016, dated 2021):

Tests used:
Format in all cases: biochemical
[1] = molecular target: phosphorylated form of full length BTK (active BTK) (Homo sapiens (Human), UniProt Q06187); assay: Mobility shift assay (MSA, Caliper LabChip), active BTK assay; settings: Assay type B (MSA using active BTK)
Description: The active BTK assay consists of phosphorylated form of full length BTK. […] The enzyme inhibitor complexes is incubated, before the kinase activation reaction is initiated.
Mobility Shift Assay (MSA)
The active BTK assay consisted of phosphorylated form of full length BTK. […] The enzyme inhibitor complexes was incubated for 30 minutes at the room temperature and the kinase activation reaction was initiated by the addition of 1 μM Srctide peptide substrate and […].

[2] = molecular target: full-length activated BTK (wildtype) (Homo sapiens (Human), UniProt Q06187); assay: AlphaScreen assay, wild-type BTK
Chain of full-length activated BTK (wildtype) (Q06187 whole entry): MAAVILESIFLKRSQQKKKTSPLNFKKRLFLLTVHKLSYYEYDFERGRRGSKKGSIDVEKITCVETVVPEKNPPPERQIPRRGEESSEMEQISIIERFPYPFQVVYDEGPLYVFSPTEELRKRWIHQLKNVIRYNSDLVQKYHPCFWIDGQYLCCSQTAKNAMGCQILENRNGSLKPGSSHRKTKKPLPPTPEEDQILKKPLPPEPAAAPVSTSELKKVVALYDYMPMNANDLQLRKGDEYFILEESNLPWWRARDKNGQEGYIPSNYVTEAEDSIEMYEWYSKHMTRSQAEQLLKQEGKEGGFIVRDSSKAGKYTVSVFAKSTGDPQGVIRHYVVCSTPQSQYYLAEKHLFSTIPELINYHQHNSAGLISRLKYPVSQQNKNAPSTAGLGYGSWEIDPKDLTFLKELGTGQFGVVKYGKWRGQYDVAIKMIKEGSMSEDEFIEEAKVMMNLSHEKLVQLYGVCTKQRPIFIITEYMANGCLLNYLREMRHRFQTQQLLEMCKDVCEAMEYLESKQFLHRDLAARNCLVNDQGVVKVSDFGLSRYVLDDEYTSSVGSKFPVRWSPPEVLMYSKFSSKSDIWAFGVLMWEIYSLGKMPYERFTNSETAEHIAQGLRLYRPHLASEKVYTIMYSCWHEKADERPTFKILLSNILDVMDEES

[3] = molecular target: full-length activated BTK mutant C481S (Homo sapiens (Human), UniProt Q06187, C481S); assay: AlphaScreen assay, BTK mutant C481S
Chain of full-length activated BTK mutant C481S (Q06187 whole entry C481S): as the sequence (Q06187 whole entry) above, with C481S counted along it

Chain of phosphorylated form of full length BTK (active BTK) (Q06187 whole entry): as the sequence (Q06187 whole entry) above

Row | SMILES | IC50 [1] [nM] | other results
1 | C[C@@H](O)[C@@H]1CC[C@@H](Nc2ncnc3[nH]cc(C(=O)c4ccc(Oc5cccc(F)c5)cc4Cl)c23)CO1 [Compound I-182, (2-chloro-4-(3-fluorophenoxy)phenyl)(4-(((3R,6S)-6-((R)-1-hydroxyethyl)tetrahydro-2H-pyran-3-yl)amino)-7H-pyrrolo[2,3-d]pyrimidin-5-yl)methanone] | 1.5 | 
2 | CC1(N)CN([C@H]2CC[C@H](Nc3ncnc4[nH]cc(C(=O)c5ccccc5Cl)c34)CC2)C1 [Compound I-114, (4-((trans-4-(3-amino-3-methylazetidin-1-yl)cyclohexyl)amino)-7H-pyrrolo[2,3-d]pyrimidin-5-yl)(2-chlorophenyl)methanone] | 23 | 
3 | CC1(O)CN([C@H]2CC[C@H](Nc3ncnc4[nH]cc(C(=O)c5ccccc5Cl)c34)CC2)C1 [Compound I-112, (2-chlorophenyl)(4-((trans-4-(3-hydroxy-3-methylazetidin-1-yl)cyclohexyl)amino)-7H-pyrrolo[2,3-d]pyrimidin-5-yl)methanone] | 18 | 
4 | CC(=O)N[C@@H](C)[C@@H]1CC[C@@H](Nc2ncnc3[nH]cc(C(=O)c4ccccc4C)c23)CO1 [Compound I-117, N—((S)-1-((2S,5R)-5-((5-(2-methylbenzoyl)-7H-pyrrolo[2,3-d]pyrimidin-4-yl)amino)tetrahydro-2H-pyran-2-yl)ethyl)acetamide] | 5.9 | 
5 | CC(=O)NC[C@@H]1CC[C@@H](Nc2ncnc3[nH]cc(C(=O)c4ccc(Oc5ccccc5)cc4)c23)CO1 [Compound I-205, N-(((2S,5R)-5-((5-(4-phenoxybenzoyl)-7H-pyrrolo[2,3-d]pyrimidin-4-yl)amino)tetrahydro-2H-pyran-2-yl)methyl)acetamide] | 1.6 | 
6 | N[C@H]1C[C@H](Nc2ncnc3[nH]cc(C(=O)c4ccc(Oc5ccccc5)cc4)c23)C1 [Compound I-191, (4-((trans-3-aminocyclobutyl)amino)-7H-pyrrolo[2,3-d]pyrimidin-5-yl)(4-phenoxyphenyl)methanone] | 37 | 
7 | C[C@H](O)C(=O)NC[C@@H]1CC[C@@H](Nc2ncnc3[nH]cc(C(=O)c4ccc(Oc5ccccc5)cc4Cl)c23)CO1 [Compound I-210, (S)—N-(((2S,5R)-5-((5-(2-chloro-4-phenoxybenzoyl)-7H-pyrrolo[2,3-d]pyrimidin-4-yl)amino)tetrahydro-2H-pyran-2-yl)methyl)-2-hydroxypropanamide] | 1.9 | 
8 | CN(C)C[C@]1(O)CC[C@@H](Nc2ncnc3[nH]cc(C(=O)c4ccc(Oc5ccccc5)cc4Cl)c23)CC1 [Compound I-178, (2-chloro-4-phenoxyphenyl)(4-((cis-4-((dimethylamino)methyl)-4-hydroxycyclohexyl)amino)-7H-pyrrolo[2,3-d]pyrimidin-5-yl)methanone] | 2.2 | 
9 | O=C(c1ccc(Oc2ccccc2)cc1Cl)c1c[nH]c2ncnc(N[C@H]3CC[C@@H](O)[C@@H](O)C3)c12 (racemic) [Compound I-179, rac-(2-chloro-4-phenoxyphenyl)(4-(((1S,3S,4R)-3,4-dihydroxycyclohexyl)amino)-7H-pyrrolo[2,3-d]pyrimidin-5-yl)methanone] | 1.8 | 
10 | C[C@]1(O)CC[C@@H](Nc2ncnc3[nH]cc(C(=O)c4ccc(Oc5ccccc5)cc4Cl)c23)CC1 [Compound I-200, (2-chloro-4-phenoxyphenyl)(4-((cis-4-hydroxy-4-methylcyclohexyl)amino)-7H-pyrrolo[2,3-d]pyrimidin-5-yl)methanone] | 1.4 | 
11 | N[C@H]1C[C@@H](Nc2ncnc3[nH]cc(C(=O)c4ccc(Oc5ccccc5)cc4)c23)C1 [Compound I-190, (4-((cis-3-aminocyclobutyl)amino)-7H-pyrrolo[2,3-d]pyrimidin-5-yl)(4-phenoxyphenyl)methanone] | 17 | 
12 | CC(=O)N[C@@H](C)[C@@H]1CC[C@@H](Nc2ncnc3[nH]cc(C(=O)c4ccc(Oc5ccccc5)cc4C)c23)CO1 [Compound I-204, N-((S)-1-((2S,5R)-5-((5-(2-methyl-4-phenoxybenzoyl)-7H-pyrrolo[2,3-d]pyrimidin-4-yl)amino)tetrahydro-2H-pyran-2-yl)ethyl)acetamide] | 1.1 | 
13 | N[C@H]1CC[C@@H](Nc2ncnc3[nH]cc(C(=O)c4ccc(Oc5ccccc5)cc4)c23)CC1 [Compound I-130, (4-((cis-4-aminocyclohexyl)amino)-7H-pyrrolo[2,3-d]pyrimidin-5-yl)(4-phenoxyphenyl)methanone] | 3.2 | 
14 | CC(=O)N[C@H]1C[C@@H](Nc2ncnc3[nH]cc(C(=O)c4ccc(Oc5ccccc5)cc4)c23)C1 [Compound I-196, N-(cis-3-((5-(4-phenoxybenzoyl)-7H-pyrrolo[2,3-d]pyrimidin-4-yl)amino)cyclobutyl)acetamide] | 3.2 | 
15 | CC(C)(C)OC(=O)N[C@H]1CC[C@H](Nc2ncnc3[nH]cc(C(=O)c4ccc(Oc5ccccc5)cc4)c23)C1 [Compound I-184, tert-butyl ((1S,3S)-3-((5-(4-phenoxybenzoyl)-7H-pyrrolo[2,3-d]pyrimidin-4-yl)amino)cyclopentyl)carbamate] | 61 | 
16 | CC(C)(O)[C@@H]1CC[C@@H](Nc2ncnc3[nH]cc(C(=O)c4ccc(Oc5ccccc5)cc4Cl)c23)CO1 [Compound I-188, (2-chloro-4-phenoxyphenyl)(4-(((3R,6S)-6-(2-hydroxypropan-2-yl)tetrahydro-2H-pyran-3-yl)amino)-7H-pyrrolo[2,3-d]pyrimidin-5-yl)methanone] | 1.7 | 
17 | N[C@@H]1CC[C@@H](Nc2ncnc3[nH]cc(C(=O)c4ccc(Oc5ccccc5)cc4)c23)C1 [Compound I-189, (4-(((1R,3R)-3-aminocyclopentyl)amino)-7H-pyrrolo[2,3-d]pyrimidin-5-yl)(4-phenoxyphenyl)methanone] | 17 | 
18 | C[C@@H](O)[C@@H](CO)NC(=O)[C@@H]1CC[C@@H](Nc2ncnc3[nH]cc(C(=O)c4ccc(Oc5ccccc5)cc4)c23)CO1 [Compound I-175, (2S,5R)—N-((2R,3R)-1,3-dihydroxybutan-2-yl)-5-((5-(4-phenoxybenzoyl)-7H-pyrrolo[2,3-d]pyrimidin-4-yl)amino) tetrahydro-2H-pyran-2-carboxamide] | 3.1 | 
19 | CC(=O)N[C@H](C)[C@@H]1CC[C@@H](Nc2ncnc3[nH]cc(C(=O)c4ccc(Oc5ccccc5)cc4Cl)c23)CO1 [Compound I-195, N—((R)-1-((2S,5R)-5-((5-(2-chloro-4-phenoxybenzoyl)-7H-pyrrolo[2,3-d]pyrimidin-4-yl)amino)tetrahydro-2H-pyran-2-yl)ethyl)acetamide] | 2.2 | 
20 | CC(=O)NC[C@@H]1CC[C@@H](Nc2ncnc3[nH]cc(C(=O)c4ccccc4Cl)c23)CO1 [Compound I-118, N-(((2S,5R)-5-((5-(2-chlorobenzoyl)-7H-pyrrolo[2,3-d]pyrimidin-4-yl)amino)tetrahydro-2H-pyran-2-yl)methyl)acetamide] | 4.4 | 
21 | O=C(Nc1ccc(Cl)c(C(=O)c2c[nH]c3ncnc(N[C@@H]4CC[C@@H](CO)OC4)c23)c1)c1nccc2ccccc12 [Compound I-607, N-(4-chloro-3-(4-(((3R,6S)-6-(hydroxymethyl)tetrahydro-2H-pyran-3-yl)amino)-7H-pyrrolo[2,3-d]pyrimidine-5-carbonyl)phenyl)isoquinoline-1-carboxamide] |  | IC50 [2]: 13.8 nM; IC50 [3]: 216 nM
